The results in this text go back to US9308161B2, “Substance for restoring normal co-expression and interaction between the LOX and NRAGE proteins” (BASF Beauty Care Solutions France S.A.S., priority 2005, dated 2016).

“And” between values parts separate entries of the source, which are not always exact repeats. Equal values may be shown once.

One experiment concerns LOX. As to the kind of experiment: LOX messenger RNA by quantitative RT-PCR, keratinocytes in culture in the absence of calcium differentiation (Example 15). The format is cell-based, human. The following applies: mRNA relative to actine vs untreated control (NT); 24 hours; no calcium differentiation; 0.1% to 1% (v/v). The method, then: The actives were tested on normal human keratinocytes from young subjects, obtained by enzymatic extraction of human biopsies collected after surgical resection and cultivated as monolayers in a K-SFM (keratinocyte serum free medium with supplements) defined medium, supplemented with antibiotics at 37° C. under 5% CO2. The cells are sown at the second passage in 24-well plates, for example with an amount of 30 000 cells per cm^2 and grown until about 95% confluence. […] Active ingredients of different origins (vegetable, biotechnological origin or synthesized molecules for example) are tested from 0.1% volume/volume (v/v) to 1% (v/v). An active ingredient from vegetable origin is tested for example at 1% (v/v) and a synthesized molecule is tested for example at 0.1% (v/v) […] The obtained extracts are then filtered or distilled in order to recover the soluble fraction which is then filtered at 0.45 μm preferably. The biotechnological hydrolysates are obtained by fermentation of vegetable extracts in the presence of microorganisms, advantageously from the Lactobacillus or Saccharomyces family. These hydrolysates are then preferably filtered to 0.45 μm. The incubation is advantageously performed for 24 hours at 37° C. under 5% CO2, in a K-SFM medium without growth factors but with antibiotics. The negative controls are either the culture medium by itself, or the culture medium containing from 0.1% (v/v) to 1% (v/v) of the solvent used during the method for extracting the tested extracts. […] The untreated cells (NT control) are dry frozen at -80° C. after rinsing with pH 7.4 phosphate buffer. […] Modification of the expression of the genes is achieved by real time RT-PCR which measures the expression of each gene relative to actine (housekeeping gene) and expressed as a % of the untreated negative control (NT). […] According to the experimentation, the measuring threshold of C(T) (=cycle threshold) was set for T between 0.05 and 0.01 and then an arbitrary measuring unit is calculated for each gene according to the formula: […] […]

The test system of experiment [1] is differentiated human keratinocytes. The experiment is described as follows: Apoptosis by TUNEL in monolayer cultures of differentiated human keratinocytes, LOX activity inhibited. The format is cell-based. The method, then:
The study was carried out on monolayer cultures of differentiated human keratinocytes at confluence. The effect of LOX on apoptosis was identified by inhibiting its activity through the addition of β-APN (0.02% w/v—(weight/volume)) under normal or proapoptotic conditions (thermal shock caused by exposure to a temperature of 45° C.±0.5° C. for 1 h 30 min).
Cell death by apoptosis is detected and quantified using the TUNEL (terminal deoxynucleotidyl transferase mediated dUTP nick end labeling) technique, which is based on labeling of the […] accompanying apoptosis.
The first step consists in labeling the DNA breaks with TdT (terminal deoxynucleotidyl transferase), which catalyzes the polymerization of the fluorescein-labeled nucleotides at the free 3′-OH end of the DNA. The second step consists in detecting the incorporated fluorescein with an alkaline phosphatase-conjugated anti-fluorescein antibody after incubation with the substrate for the latter.
The experiment is validated by means of a positive control obtained by fragmentation of the DNA with a DNase solution, and a negative control obtained by depositing phosphate buffer.

The next experiment has as its system transglutaminase. The experiment is described as follows: Transglutaminase immunolabelling intensity in reconstructed skin model (MIMESKIN). It counts as cell-based, human. The note with it: positive control, calcium chloride 1.5 mM. The method, then: The reconstructed skin model is in particular achieved according to the following protocol: • 0.5 to 1.10^6 fibroblasts of normal human skin are sown on a matrix substrate based on collagen/glycosaminoglycan/chitosan, and then grown in a nutritive medium, for example DMEM-Glutamax supplemented with 10% of calf serum; ascorbic acid, preferably at a final concentration of 1 mM; EGF (epidermal grow factor), preferably at a final concentration of 10 ng/ml; Normocin, preferably at a final concentration of 100 μg/ml, for 21 days. • 0.5 to 1.10^6 […], and then grown in a nutritive medium, for example DMEM-Glutamax/Ham F-12 (ratio 3:1 v/v) supplemented with calf serum, ascorbic acid, preferably at a final concentration of 1 mM; EGF (epidermal growth factor), preferably at a final concentration of 10 ng/ml; hydrocortisone, preferably at a final concentration of 0.4 μg/ml; umuline, preferably at a final concentration of 0.12 IU/ml; isuprel, preferably at a final concentration of […]; triiodothyronine, preferably at a final concentration of 2.10^−9M; adenine, preferably at a final concentration of 24.3 μg/ml; Normocin, preferably at a final concentration of 100 μg/ml. The culture was continued for 7 days in an immersed condition. The cultures were then placed at the air-liquid interface for 14 additional days in the same medium as the immersion culture, except for the calf serum, hydrocortisone, isuprel, triidothyronine and umuline.
The active ingredient (ephedra extract) is advantageously diluted in the culture media described above at 0.5 and 1% and used 3 days after the respective sowing of fibroblasts and keratinocytes (i.e. days 3 to 21 and days 24 to 42). […]
Viewing of immunolabellings is performed under photon microscopy (Axioskop2plus—Zeiss, Germany) and quantification of the transglutaminase immunolabellings was performed by image analysis (Lucia—Nilon, France) and the effects of the treatment with the active ingredient are evaluated (Holm-Sidak statistical test, p<0.01).

For the compound `CCC(C)C(=O)OC` (stereo not drawn) [Methyl 2 methyl butyrate], the “LOX modulation vs NT” value in the experiment with LOX is on record as 2.5. `N#CCCN` [β-APN, β-aminopropionitrile]: the “Without thermal shock (% of labeled cells)” value in experiment [1] (TUNEL, β-APN 0.02% w/v, normal conditions) is reported as 56% of labeled cells. The “With thermal shock (% of labeled cells)” value in experiment [1] (TUNEL, β-APN 0.02% w/v, thermal shock 45° C.±0.5° C. for 1 h 30 min) is listed as 81% of labeled cells. The effect on apoptosis result in experiment [1] (inhibition of the enzymatic activity of LOX by β-APN) is reported as “substantial increase in apoptosis”. With `CC/C=C/CC(=O)OCC` [Ethyl trans 3-hexanoate], the “LOX modulation vs NT” value in the experiment with LOX turned out to be 2.3. `[Ca+2].[Cl-].[Cl-]` [Calcium, calcium chloride]: in the experiment with transglutaminase, the “INTENSITY Average” value worked out at 0.067 and the “Variation vs NT” value amounted to 59%. Further, the “INTENSITY of transglutaminase labelling (single values)” value in the experiment on transglutaminase (day 28-42) was 0.061 and 0.076 and 0.064.

Consider `OC[C@@H](O)[C@H](O)[C@@H](O)CO` [Xylitol], for which the “LOX modulation vs NT” value with LOX was found to be 2.8.
